According to PMC2233905 (The Journal of General Physiology, 2004):

Target: T1, hEag2 channels (Homo sapiens, UniProt Q8NCM2)
T1 sequence (Q8NCM2 1-988): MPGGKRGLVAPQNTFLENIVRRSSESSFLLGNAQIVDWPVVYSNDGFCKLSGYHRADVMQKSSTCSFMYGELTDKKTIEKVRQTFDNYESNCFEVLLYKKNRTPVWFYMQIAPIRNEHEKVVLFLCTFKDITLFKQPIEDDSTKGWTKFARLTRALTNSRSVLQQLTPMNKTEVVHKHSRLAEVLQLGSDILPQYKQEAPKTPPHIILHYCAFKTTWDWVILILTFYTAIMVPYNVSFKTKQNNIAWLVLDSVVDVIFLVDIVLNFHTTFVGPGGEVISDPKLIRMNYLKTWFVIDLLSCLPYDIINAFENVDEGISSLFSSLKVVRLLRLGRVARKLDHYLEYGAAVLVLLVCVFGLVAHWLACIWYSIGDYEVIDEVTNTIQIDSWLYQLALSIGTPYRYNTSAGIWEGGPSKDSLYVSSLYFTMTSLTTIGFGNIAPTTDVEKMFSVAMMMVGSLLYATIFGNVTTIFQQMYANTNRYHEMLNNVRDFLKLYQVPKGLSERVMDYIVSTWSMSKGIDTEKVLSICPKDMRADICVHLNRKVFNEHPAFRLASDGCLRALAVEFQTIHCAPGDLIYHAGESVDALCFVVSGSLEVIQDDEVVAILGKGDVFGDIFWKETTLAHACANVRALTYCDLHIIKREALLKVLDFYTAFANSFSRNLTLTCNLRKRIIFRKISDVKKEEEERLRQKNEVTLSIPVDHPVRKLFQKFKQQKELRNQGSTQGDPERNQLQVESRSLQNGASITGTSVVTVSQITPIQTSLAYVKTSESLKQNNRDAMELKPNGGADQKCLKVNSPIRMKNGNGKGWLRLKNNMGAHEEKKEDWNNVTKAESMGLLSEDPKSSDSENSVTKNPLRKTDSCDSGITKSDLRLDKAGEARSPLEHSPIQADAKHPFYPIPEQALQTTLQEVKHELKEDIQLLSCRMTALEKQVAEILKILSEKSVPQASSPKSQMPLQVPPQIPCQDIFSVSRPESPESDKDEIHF
Experiment: hEag2 channels expressed in Xenopus oocytes
Format: cell-based

IC50: ~1.5 µM
SMILES: COc1ccc(CCN2CCC(Nc3nc4ccccc4n3Cc3ccc(F)cc3)CC2)cc1 [astemizole]
